Data as given in PubChem BioAssay (NCI).
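Briefly, cells in 96-well plates were exposed to five compound concentrations for 48 h, and endpoints were estimated by linear interpolation. TGI denotes the concentration required for complete inhibition of growth.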

What was measured:
Experiment in all cases: NCI anticancer screen, dose series, 48 h
COLO 205 colon = system: COLO 205 colon
CAKI-1 renal = system: CAKI-1 renal
U251 CNS = system: U251 CNS
HOP-62 NSCLC = system: HOP-62 NSCLC
HCT-116 colon = system: HCT-116 colon
MALME-3M melanoma = system: MALME-3M melanoma
K-562 leukemia = system: K-562 leukemia

Row | Structure (SMILES) | TGI (COLO 205 colon) | TGI (CAKI-1 renal) | TGI (U251 CNS) | TGI (HOP-62 NSCLC) | TGI (HCT-116 colon) | TGI (MALME-3M melanoma) | TGI (K-562 leukemia)
1 | CSc1nc(-c2ccccc2)[nH]c(=O)n1 | > 100 µM | > 100 µM | > 100 µM | > 100 µM | > 100 µM | > 100 µM | –
2 | COc1cccc([C@@H]2C/C(=N\NC(=O)C(=O)N[C@@H](C)c3ccccc3)c3ccccc3N2)c1 | > 100 µM | > 100 µM | > 100 µM | > 100 µM | > 100 µM | – | > 100 µM
3 | S=C(NCCc1ccccn1)N/N=C(\c1ccccc1)c1ccccn1 | > 100 µM | > 58.8 µM | > 100 µM | > 50.1 µM | > 100 µM | > 100 µM | > 100 µM
4 | O=C1c2cc3c(cc2CC12Cc1ccccc1C2)CCC3 | 48.5 µM | 75.1 µM | > 100 µM | 92 µM | 47.5 µM | 71.5 µM | > 100 µM
5 | CC(=O)Nc1ccc(S(=O)(=O)c2nnc(NC(C)=O)s2)cc1 | 0.537 µM | > 100 µM | > 100 µM | > 100 µM | > 100 µM | > 100 µM | > 100 µM
6 | Cc1n[nH]c(=O)n1C1CC1 | > 100 µM | > 100 µM | > 100 µM | > 100 µM | > 100 µM | > 100 µM | > 100 µM
7 | CCN(CC)CCCNc1ccc([N+](=O)[O-])c2nc3ccccc3c(N)c12 | – | > 10 µM | – | > 10 µM | 1.48 µM | > 10 µM | 2.35 µM
8 | CCOC(=O)C1CCCc2sc(N)c(C#N)c21 (stereo not drawn) | > 100 µM | – | > 100 µM | > 100 µM | > 100 µM | > 100 µM | > 100 µM
9 | CCOC(=O)c1c(NC(=S)Nc2ccccc2)sc2c1CCN(C)C2 | > 100 µM | > 100 µM | – | > 100 µM | > 100 µM | – | > 100 µM
10 | COc1ccc2c(=O)c3ccoc3[nH]c2c1 | > 100 µM | > 100 µM | > 100 µM | > 100 µM | > 100 µM | – | > 100 µM
11 | COc1ccc(C2(CC(C)C)CCNC2)cc1OC (stereo not drawn) | > 100 µM | > 100 µM | > 100 µM | > 100 µM | > 100 µM | > 100 µM | > 100 µM
12 | CC1(C)CN(CC(=O)O)CC(Cc2ccc(OCC(=O)O)cc2)N(CC(=O)O)CC(C)(C)SS1 (stereo not drawn) | > 100 µM | > 100 µM | > 100 µM | > 100 µM | > 100 µM | > 100 µM | > 100 µM
13 | Cn1cc(NC(=O)Nc2cc(C(=O)Nc3cc(C(=O)Nc4ccc5cc(S(=O)(=O)O)cc(S(=O)(=O)O)c5c4)n(C)c3)n(C)c2)cc1C(=O)Nc1cc(C(=O)Nc2ccc3cc(S(=O)(=O)O)cc(S(=O)(=O)O)c3c2)n(C)c1 | > 100 µM | – | > 100 µM | > 100 µM | > 100 µM | > 100 µM | > 100 µM
14 | COCN1C(=O)[C@@H]2C[C@@H](O)CN2C(=O)c2ccccc21 | > 100 µM | > 100 µM | > 100 µM | > 100 µM | > 100 µM | > 100 µM | > 100 µM
15 | O=C1c2ccccc2CC12Cc1cc3c(cc1C2)CCC3 | > 100 µM | > 100 µM | > 100 µM | > 100 µM | > 100 µM | 76.2 µM | > 100 µM
16 | CCS1=C2C(=O)CC(C)(C)CC2=Nc2ccccc21 (stereo not drawn) | > 100 µM | > 100 µM | > 100 µM | > 100 µM | > 100 µM | > 100 µM | > 100 µM
17 | O=C1N[C@H]2C(=O)c3c(Br)sc(Br)c3[C@H]2O1 | 8.17 µM | 9.81 µM | 8.87 µM | 44.5 µM | 7.33 µM | 11.3 µM | > 21.7 µM
18 | O=c1c2ccccc2n2c(-c3ccccc3O)nnc2n1-c1ccccc1 | > 100 µM | > 100 µM | > 100 µM | > 100 µM | > 100 µM | > 100 µM | > 100 µM
19 | COc1cc(C2c3cc4c(cc3OC(NNC(N)=S)C2C)OCO4)cc(OC)c1OC (stereo not drawn) | 1.37 µM | 36.3 µM | > 42.9 µM | > 100 µM | > 80.7 µM | > 100 µM | > 100 µM
20 | Cc1cccc(N=Nc2c(C)nn(C(=O)CC(=O)Nc3ccc(Cl)cc3)c2C)c1 | > 100 µM | > 100 µM | > 100 µM | > 100 µM | > 100 µM | – | –
21 | Nc1nc(Cl)c(N)c(NCC2(CO)CCC(OCc3ccccc3)C2)n1 (stereo not drawn) | > 100 µM | > 100 µM | > 100 µM | > 100 µM | > 100 µM | > 100 µM | > 100 µM
22 | NC(=O)c1ncn(C2C=CC(CP(=O)(O)O)C2)c1N (stereo not drawn) | > 100 µM | > 100 µM | > 100 µM | > 100 µM | > 100 µM | > 100 µM | > 100 µM
23 | Cc1[nH]c2ncn3[nH]c(=S)nc3c2c1Cc1ccccc1 | > 100 µM | > 100 µM | > 100 µM | > 100 µM | > 100 µM | > 100 µM | –
24 | CC(=O)NC1=NC(=O)/C(=C/c2ccccc2Cl)N1C | > 100 µM | > 100 µM | > 100 µM | > 100 µM | > 100 µM | – | –
25 | Cc1cc(C)n(-c2nc(-n3nc(C)cc3C)nc(-n3nc(C)cc3C)n2)n1 | > 100 µM | > 100 µM | – | > 100 µM | > 100 µM | > 100 µM | > 100 µM
26 | C/C(=C/CC[C@](C)(OC1OC(CO)C(O)C(O)C1O)[C@H]1CC[C@]2(C)[C@@H]1CC[C@@H]1[C@@]3(C)CC[C@H](O)C(C)(C)[C@@H]3C[C@H](O)[C@]12CO)CO (stereo partly drawn) | > 100 µM | > 100 µM | > 100 µM | > 100 µM | > 100 µM | > 100 µM | > 100 µM
27 | CN(C)c1ccc(N=C2N=C(Nc3ccccc3)C(=Nc3ccccc3)S2)cc1 | > 100 µM | > 100 µM | – | > 100 µM | > 100 µM | > 100 µM | –
28 | Oc1ccc(Br)cc1C=Nc1c(NC2CCCCC2)oc2ccc(Br)cc12 | – | > 100 µM | > 100 µM | > 100 µM | 28.7 µM | > 100 µM | 29.2 µM
